Assays:
[1] = biological target: T1, GIRK1-S65Y with GIRK4 (Homo sapiens, UniProt P48544+P48549, S65Y); experiment: 5-ptaseOCRL current inhibition, GIRK1/4 channels containing GIRK1-S65Y subunits; assay type: cell-based
T1 construct: expressed in transfected cells; host or cells: HEK293-T cells
T1 sequence (P48549 1-501 S65Y): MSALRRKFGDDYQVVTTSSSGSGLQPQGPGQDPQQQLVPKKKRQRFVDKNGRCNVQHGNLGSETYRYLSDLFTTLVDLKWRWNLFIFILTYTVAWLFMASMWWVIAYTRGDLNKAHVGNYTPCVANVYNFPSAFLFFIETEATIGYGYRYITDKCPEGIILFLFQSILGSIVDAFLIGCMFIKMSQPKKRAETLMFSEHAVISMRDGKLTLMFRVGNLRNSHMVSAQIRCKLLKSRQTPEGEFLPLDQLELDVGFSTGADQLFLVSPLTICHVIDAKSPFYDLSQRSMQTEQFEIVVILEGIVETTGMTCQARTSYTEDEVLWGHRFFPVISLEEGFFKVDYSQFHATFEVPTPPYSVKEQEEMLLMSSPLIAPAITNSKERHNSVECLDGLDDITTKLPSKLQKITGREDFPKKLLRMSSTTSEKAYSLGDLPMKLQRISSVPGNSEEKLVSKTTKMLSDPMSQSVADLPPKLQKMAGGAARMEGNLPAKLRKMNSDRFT
T1 sequence (P48544 1-419): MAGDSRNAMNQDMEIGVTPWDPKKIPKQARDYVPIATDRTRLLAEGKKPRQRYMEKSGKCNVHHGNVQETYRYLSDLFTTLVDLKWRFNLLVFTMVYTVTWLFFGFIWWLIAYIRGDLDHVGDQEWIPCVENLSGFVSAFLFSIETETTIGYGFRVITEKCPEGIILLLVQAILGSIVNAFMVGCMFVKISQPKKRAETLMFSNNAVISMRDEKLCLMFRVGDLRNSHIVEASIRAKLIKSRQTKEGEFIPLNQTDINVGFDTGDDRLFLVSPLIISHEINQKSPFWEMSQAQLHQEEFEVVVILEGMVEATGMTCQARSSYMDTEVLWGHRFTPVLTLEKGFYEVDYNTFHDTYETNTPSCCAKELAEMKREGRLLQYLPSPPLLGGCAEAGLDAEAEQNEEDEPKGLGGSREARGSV
From the text: To identify changes in specific channel residue interactions with PIP2 upon ligand binding, the inventors carried out Principal Component Analysis (PCA) in the presence and absence of ML297 and GAT1508. The PCA analysis implicated changes in the slide (or interfacial) helix interactions with PIP2 upon ligand binding. Polar interactions could be formed between GIRK2^FD(Y76) and GIRK4^FD(Y71) with the P(4,5) of PIP2 when ML297 was bound to the same subunit (FIG. 39 top, FIG. 40). In contrast, when GAT1508 was bound this interaction was retained by GIRK2^FD but not GIRK4^FD (FIG. 39 bottom, FIG. 40). The corresponding GIRK1(S65) residue (FIG. 41, highlighted with vertical rectangle) could be serving the same role in stabilizing the phosphoinositol headgroup for interactions with non-ligand binding subunits. As polar residues, both Ser and Tyr could form H-bond interactions with PIP2. […]
Patch-clamp recording: Whole-cell currents were recorded with an Axopatch 200B amplifier (Molecular Devices) controlled via a USB-interface (National Instruments) using WinWCP software (University of Strathclyde). […] The barium-sensitive component of the current, observed when cells were perfused with the high-K^+ buffer, was analyzed and was determined by perfusing 5 mM BaCl2 in the high-K^+ buffer at the end of each experiment. […]

[2] = open-field (OF) test; assay type: in vivo, rat
From the text: Open-field (OF) test: The OF apparatus is a plexiglass open-topped chamber (91.5×91.5×30.5 cm), filmed by a ceiling-mounted CCD camera and illuminated by a 25 W red light bulb placed 2 meters above the center of the chamber. […] The automated tracking system ANY-MAZE (ANY-MAZE, Stoelting Co., Wood Dale, IL, USA) was utilized to measure total distance traveled and mean speed.

[3] = 30 and 60 mg/kg, 30 min after treatment

In the case of `Cc1cc(NC(=O)Nc2ccc(Br)s2)n(-c2ccccc2)n1` [GAT1508, 1-(5-bromothiophen-2-yl)-3-(3-methyl-1-phenyl-1H-pyrazol-5-yl)urea], the “τ of current-inhibition (in words)” value [1] is reported as “not statistically increased”, the “mean speed in the OF test (in words)” value ([2]; 10 and 30 mg/kg i.p.) is reported as “comparable to the vehicle group” and the “total distance travelled in the OF test (in words)” value ([2]; 10 and 30 mg/kg i.p.) is reported as “comparable to the vehicle group”.

With `Cc1cc(NC(=O)Nc2ccc(F)c(F)c2)n(-c2ccccc2)n1` [ML297, reference compound] the “τ of current-inhibition (in words)” value [1] was “not statistically increased”, the “mean speed in the open arena (in words)” value [2, 3] was “comparable to the vehicle group” and the “total distance traveled in the open arena (in words)” value [2, 3] was “comparable to the vehicle group”.
